Counter-ions that a name gives are not always drawn. Marks after values point to notes of the source that are not given here.

The target in series [1] is D2R (Homo sapiens, UniProt P14416). Kind of series: Radioligand competition binding at human D2R ([3H]N-methylspiperone, HEK293 membranes). More on the design: expressed in transfected cells; host or cells: HEK293. As to conditions: for inhibition at 10 µM / inhibition percentage of the radioligand binding, D2R: test compound concentration of 10 μM; for inhibition at 10 µM: read-out: inhibition percentage of the radioligand binding, D2R; for inhibition percentage of the radioligand binding, D2R: 10 µM; for Ki: HEK 293 cells expressing hD2R, read-out: Ki ± SEM, D2R. As to the method: (§1) The novel hybrid derivatives 3–11 were tested at hD2R, hD3R, or hD4R stably expressed in HEK293 cells by competition binding assays, using [^3H]N-methylspiperone as the radioligand, to evaluate their D2-like affinity and subtype selectivity, following the previously reported procedures.[41],[45],[46]
Chain of D2R (P14416 whole entry): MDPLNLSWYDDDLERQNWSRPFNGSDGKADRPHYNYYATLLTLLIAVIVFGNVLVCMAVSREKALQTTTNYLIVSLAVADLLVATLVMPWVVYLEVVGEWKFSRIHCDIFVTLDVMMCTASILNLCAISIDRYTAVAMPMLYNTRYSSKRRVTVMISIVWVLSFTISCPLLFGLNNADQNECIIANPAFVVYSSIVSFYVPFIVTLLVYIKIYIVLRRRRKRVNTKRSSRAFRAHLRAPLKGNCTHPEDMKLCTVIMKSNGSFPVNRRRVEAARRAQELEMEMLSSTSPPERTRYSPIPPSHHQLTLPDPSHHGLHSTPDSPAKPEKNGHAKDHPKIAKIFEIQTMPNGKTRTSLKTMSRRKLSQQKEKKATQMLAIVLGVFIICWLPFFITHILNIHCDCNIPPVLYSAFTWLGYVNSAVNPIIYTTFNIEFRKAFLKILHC
(§2) Binding at dopamine D2-like receptors was determined using previously described methods.[41],[45],[46] Membranes were prepared from HEK293 cells stably expressing human D2, D3, or D4, grown in a 50:50 mix of Dulbecco’s minimal essential medium (DMEM) and Ham’s F12 culture media, supplemented with 20 mM HEPES, 2 mM L-glutamine, 0.1 mM nonessential amino acids, 1× antibiotic/antimycotic, 10% heat-inactivated fetal bovine serum, and 200 μg/mL hygromycin (Life Technologies, Grand Island, NY) and kept in an incubator at 37 °C and 5% CO2. Upon reaching 80–90% confluency, the cells were harvested using premixed Earle’s Balanced Salt Solution (EBSS) with 5 μM EDTA (Life Technologies) and centrifuged at 3000 rpm for 10 min at 21 °C. The supernatant was removed, and the pellet was resuspended in 10 mL hypotonic lysis buffer (5 mM MgCl2, 5 mM Tris, pH 7.4 at 4 °C) and centrifuged at 20,000 rpm for 30 min at 4 °C. The pellet was then resuspended in fresh EBSS buffer made from 8.7 g/L Earle’s Balanced Salts without phenol red (US Biological, Salem, MA), 2.2 g/L sodium bicarbonate, pH to 7.4. A Bradford protein assay (Bio-Rad, Hercules, CA) was used to determine the protein concentration, and membranes were diluted to 500 μg/mL and stored at −80 °C for later use. Radioligand competition binding experiments were conducted using thawed membranes. Test compounds were freshly dissolved in 30% DMSO and 70% H2O to a stock concentration of 100 μM. To assist the solubilization of free-base compounds, 10 μL of glacial acetic acid was added along with DMSO. Each test compound was then diluted into 13 half-log serial dilutions using 30% DMSO vehicle; the final test concentrations ranged from 10 μM to 10 pM. The previously frozen membranes were diluted in fresh EBSS to a 100 μg/mL (for D2 or D3) or 200 μg/mL (D4) stock for binding. Radioligand competition experiments were conducted in glass tubes containing 300 μL of fresh EBSS buffer, 50 μL of diluted test compound, 100 μL of membranes (10 μg of total protein for D2 or D3 and 20 μg of total protein for D4), and 50 μL of [^3H]N-methylspiperone (0.4 nM final concentration; PerkinElmer). Nonspecific binding was determined using 10 μM butaclamol (Sigma-Aldrich, St. Louis, MO), and total binding was determined with the 30% DMSO vehicle. All compound dilutions were tested in triplicate and the reaction was incubated for 1 h at room temperature. The reaction was terminated by filtration through Whatman GF/B filters, presoaked for 1 h in 0.5% polyethylenimine, using a Brandel R48 filtering manifold (Brandel Instruments, Gaithersburg, MD). The filters were washed three times with 3 mL of ice-cold EBSS buffer and transferred to scintillation vials. CytoScint liquid scintillation cocktail (3 mL, MP Biomedicals, Solon, OH) was added, and vials were counted using a PerkinElmer Tri-Carb 2910 TR liquid scintillation counter (Waltham, MA).

Series [2] addresses D3R (Homo sapiens, UniProt P35462). In words: Radioligand competition binding at human D3R ([3H]N-methylspiperone, HEK293 membranes). Details: expressed in transfected cells; host or cells: HEK293. The conditions noted are these: for Ki: HEK 293 cells expressing hD3R, read-out: Ki ± SEM, D3R; for D2/D3: ratio of Ki values D2R/D3R; for D4/D3: ratio of Ki values D4R/D3R. As to the method:
as §1, §2
On the technique in general: Loss of bound radioactivity is the signal in a displacement assay; it reports binding, not function.

Series [3] deals with T1, D4R (Homo sapiens, UniProt P21917).
T1 sequence (P21917 1-419): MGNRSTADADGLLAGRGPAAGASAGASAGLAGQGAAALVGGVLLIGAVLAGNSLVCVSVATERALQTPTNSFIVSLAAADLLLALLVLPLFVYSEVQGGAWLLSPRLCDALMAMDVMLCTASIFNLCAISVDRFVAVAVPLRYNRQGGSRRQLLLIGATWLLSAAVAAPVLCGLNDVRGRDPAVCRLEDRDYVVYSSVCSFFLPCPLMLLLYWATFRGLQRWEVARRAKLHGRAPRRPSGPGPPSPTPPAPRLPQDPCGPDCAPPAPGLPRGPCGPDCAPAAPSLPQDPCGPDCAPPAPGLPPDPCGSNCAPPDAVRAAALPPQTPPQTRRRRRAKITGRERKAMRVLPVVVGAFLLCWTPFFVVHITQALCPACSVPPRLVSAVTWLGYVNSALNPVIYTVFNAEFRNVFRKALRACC
Kind of series: Radioligand competition binding at human D4R ([3H]N-methylspiperone, HEK293 membranes). Details: expressed in transfected cells; host or cells: HEK293. The conditions noted are these: for inhibition at 10 µM / inhibition percentage of the radioligand binding, D4R: test compound concentration of 10 μM; for inhibition at 10 µM: read-out: inhibition percentage of the radioligand binding, D4R; for inhibition percentage of the radioligand binding, D4R: 10 µM; for Ki: HEK 293 cells expressing hD4R, read-out: Ki ± SEM, D4R. How it is done:
as §1, §2

Chain of D3R (P35462 whole entry): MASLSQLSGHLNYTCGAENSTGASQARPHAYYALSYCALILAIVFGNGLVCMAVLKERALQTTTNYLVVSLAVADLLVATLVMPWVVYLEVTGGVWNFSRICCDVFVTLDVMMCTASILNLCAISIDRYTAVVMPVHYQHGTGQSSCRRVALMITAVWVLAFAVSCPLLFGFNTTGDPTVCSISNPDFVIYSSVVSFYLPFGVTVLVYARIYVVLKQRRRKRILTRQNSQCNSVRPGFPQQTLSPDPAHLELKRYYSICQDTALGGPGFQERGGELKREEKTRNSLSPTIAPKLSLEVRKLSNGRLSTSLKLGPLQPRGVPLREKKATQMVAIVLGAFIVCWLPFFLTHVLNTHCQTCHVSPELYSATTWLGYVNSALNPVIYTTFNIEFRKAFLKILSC

In general, melting point refers to the temperature, or range, at which the solid turns liquid. For `O=C(NCCC(F)CN1CCN(c2cccc(Cl)c2Cl)CC1)C1COc2ccccc2O1` (centres unmarked) (as salt: oxalate) [11a, N-(4-(4-(2,3-Dichlorophenyl)piperazin-1-yl)-3-fluorobutyl)-2,3-dihydrobenzo[b][1,4]dioxine-2-carboxamide], the melting point was 200 to 201 °C.

Take `O=C(NCCCCN1CCN(c2cccc(Cl)c2Cl)CC1)C1COCC(c2ccccc2)(c2ccccc2)O1` (centres unmarked) (as salt: oxalate) [compound 3, N-(4-(4-(2,3-Dichlorophenyl)piperazin-1-yl)butyl)-6,6-diphenyl-1,4-dioxane-2-carboxamide]: the melting point was 107 to 108 °C.

With `O=C(NCCC(F)CN1CCN(c2cccc(Cl)c2Cl)CC1)C1COCC(c2ccccc2)(c2ccccc2)O1` (centres unmarked) (as salt: oxalate) [compound 5, N-(4-(4-(2,3-Dichlorophenyl)piperazin-1-yl)-3-fluorobutyl)-6,6-diphenyl-1,4-dioxane-2-carboxamide], the melting point was 100 to 101 °C.

Turning to `O=C(NCCCCN1CCN(c2cccc(Cl)c2Cl)CC1)C1COC(c2ccccc2)(c2ccccc2)CO1` (centres unmarked) (as salt: oxalate) [compound 6, N-(4-(4-(2,3-Dichlorophenyl)piperazin-1-yl)butyl)-5,5-diphenyl-1,4-dioxane-2-carboxamide], the melting point was 94 to 95 °C.

The compound `O=C(NCCC(O)CN1CCN(c2cccc(Cl)c2Cl)CC1)C1COC(c2ccccc2)(c2ccccc2)CO1` (centres unmarked) (as salt: oxalate) [compound 7, N-(4-(4-(2,3-Dichlorophenyl)piperazin-1-yl)-3-hydroxybutyl)-5,5-diphenyl-1,4-dioxane-2 Carboxamide] displayed a melting point of 132 to 133 °C.

Compound `O=C(NCCC(F)CN1CCN(c2cccc(Cl)c2Cl)CC1)C1COC(c2ccccc2)(c2ccccc2)CO1` (centres unmarked) (as salt: oxalate) [compound 8, N-(4-(4-(2,3-Dichlorophenyl)piperazin-1-yl)-3-fluorobutyl)-5,5-diphenyl-1,4-dioxane-2-carboxamide] gave a melting point of 126 to 127 °C.

`O=C(NCCCCN1CCN(c2cccc(Cl)c2Cl)CC1)C1COc2ccccc2O1` (centres unmarked) (as salt: oxalate) [compound 9, N-(4-(4-(2,3-Dichlorophenyl)piperazin-1-yl)butyl)-2,3-dihydrobenzo[b][1,4]dioxine-2-carboxamide] yielded a melting point of 167 to 168 °C.

Compound `O=C(NCCC(O)CN1CCN(c2cccc(Cl)c2Cl)CC1)C1COCC(c2ccccc2)(c2ccccc2)O1` (single isomer, unassigned) (as salt: oxalate) [4a, N-(4-(4-(2,3-Dichlorophenyl)piperazin-1-yl)-3-hydroxybutyl)-6,6-diphenyl-1,4-dioxane-2-carboxamide] displayed a melting point of 146 to 147 °C.

As usually defined, the inhibition is the relative decrease from the control value, in per cent. A word on the Ki: it is a measure of affinity in units of concentration, obtained from inhibition or displacement. For `O=C(NCCC(O)CN1CCN(c2cccc(Cl)c2Cl)CC1)C1COCC(c2ccccc2)(c2ccccc2)O1` (centres unmarked) [4a, N-(4-(4-(2,3-Dichlorophenyl)piperazin-1-yl)-3-hydroxybutyl)-6,6-diphenyl-1,4-dioxane-2-carboxamide], the results for the inhibition at 10 µM in series [1] and in series [3] were 39.5% and 39.2%, respectively. Also, the inhibition constant Ki in series [2] ([3H]N-methylspiperone) was 0.164 ± 0.052 µM.

Turning to `O=C(NCCC(O)CN1CCN(c2cccc(Cl)c2Cl)CC1)C1COCC(c2ccccc2)(c2ccccc2)O1` (centres unmarked) [4b, N-(4-(4-(2,3-Dichlorophenyl)piperazin-1-yl)-3-hydroxybutyl)-6,6-diphenyl-1,4-dioxane-2-carboxamide], in series [1], the “inhibition percentage of the radioligand binding, D2R” value is 41% ^c. Besides, in series [2] ([3H]N-methylspiperone), the inhibitory constant (Ki) stood at 0.0771 ± 0.0255 µM. Moreover, in series [3], the “inhibition percentage of the radioligand binding, D4R” value worked out at 54.4% ^c.

For `O=C(NCCC(O)CN1CCN(c2cccc(Cl)c2Cl)CC1)C1COc2ccccc2O1` (centres unmarked) [10a, N-(4-(4-(2,3-Dichlorophenyl)piperazin-1-yl)-3-hydroxybutyl)-2,3-dihydrobenzo[b][1,4]dioxine-2-carboxamide], the Ki in series [1] was determined as 1.1 ± 0.125 µM; in series [2] ([3H]N-methylspiperone), 0.0441 ± 0.0082 µM; in series [3] it was 0.282 ± 0.076 µM. Also, the D2/D3 in series [2] was 25. For the same compound, the D4/D3 in series [2] is given as 6.

For the compound `O=C(NCCC(O)CN1CCN(c2cccc(Cl)c2Cl)CC1)C1COc2ccccc2O1` (centres unmarked) [10b, N-(4-(4-(2,3-Dichlorophenyl)piperazin-1-yl)-3-hydroxybutyl)-2,3-dihydrobenzo[b][1,4]dioxine-2-carboxamide], the Ki in series [1] came out at 0.783 ± 0.019 µM; in series [2] ([3H]N-methylspiperone), 0.0234 ± 0.0024 µM; in series [3], 0.244 ± 0.054 µM. Also, the D4/D3 in series [2] is listed as 10.

`O=C(NCCC(F)CN1CCN(c2cccc(Cl)c2Cl)CC1)C1COc2ccccc2O1` (centres unmarked) [11a, N-(4-(4-(2,3-Dichlorophenyl)piperazin-1-yl)-3-fluorobutyl)-2,3-dihydrobenzo[b][1,4]dioxine-2-carboxamide]: the inhibition at 10 µM in series [1] was 10.6%; in series [2] (test compound concentration of 10 μM, [3H]N-methylspiperone, read-out: inhibition percentage of the radioligand binding, D3R), 54.8%; in series [3], 29.4%.

As to `O=C(NCCC(F)CN1CCN(c2cccc(Cl)c2Cl)CC1)C1COc2ccccc2O1` (centres unmarked) [11b, N-(4-(4-(2,3-Dichlorophenyl)piperazin-1-yl)-3-fluorobutyl)-2,3-dihydrobenzo[b][1,4]dioxine-2-carboxamide], in series [1], the “inhibition percentage of the radioligand binding, D2R” value came out at 8.7% ^c. In addition, the “inhibition percentage of the radioligand binding, D3R” value in series [2] (test compound concentration of 10 μM, [3H]N-methylspiperone, 10 µM) was determined as 65.4% ^c. The “inhibition percentage of the radioligand binding, D4R” value in series [3] was 26.6% ^c.

Turning to `O=C(NCCC(F)CN1CCN(c2cccc(Cl)c2Cl)CC1)C1COCC(c2ccccc2)(c2ccccc2)O1` (centres unmarked) [compound 5, N-(4-(4-(2,3-Dichlorophenyl)piperazin-1-yl)-3-fluorobutyl)-6,6-diphenyl-1,4-dioxane-2-carboxamide], the values for the inhibition at 10 µM in series [1] and in series [3] were 21.2% and 19.1%, respectively. The Ki in series [2] ([3H]N-methylspiperone) was found to be 0.716 ± 0.178 µM.

Take `O=C(NCCC(O)CN1CCN(c2cccc(Cl)c2Cl)CC1)C1COC(c2ccccc2)(c2ccccc2)CO1` (centres unmarked) [compound 7, N-(4-(4-(2,3-Dichlorophenyl)piperazin-1-yl)-3-hydroxybutyl)-5,5-diphenyl-1,4-dioxane-2 Carboxamide]: the values for the inhibition constant Ki in series [1], in series [2] ([3H]N-methylspiperone) and in series [3] were 0.526 ± 0.0282 µM, 0.0234 ± 0.0031 µM and 0.39 ± 0.046 µM, respectively. Also, the D2/D3 in series [2] is on record as 23. Also, the D4/D3 in series [2] amounted to 17.

On to `O=C(NCCC(F)CN1CCN(c2cccc(Cl)c2Cl)CC1)C1COC(c2ccccc2)(c2ccccc2)CO1` (centres unmarked) [compound 8, N-(4-(4-(2,3-Dichlorophenyl)piperazin-1-yl)-3-fluorobutyl)-5,5-diphenyl-1,4-dioxane-2-carboxamide], for which the inhibitory constant (Ki) in series [1] amounted to 1.2 ± 0.21 µM; in series [2] ([3H]N-methylspiperone), 0.295 ± 0.1 µM. Further, in series [2], the D2/D3 amounted to 4. For the same compound, the inhibition at 10 µM in series [3] came out at 43.6%.

For the origin of these results see article PMC8498988, “Scaffold Hybridization Strategy Leads to the Discovery of Dopamine D3 Receptor-Selective or Multitarget Bitopic Ligands Potentially Useful for Central Nervous System Disorders” (ACS Chemical Neuroscience, 2021).
